Structures can show the parent of a compound that is named as a salt. Where two headings read alike, the source gives them in different places.
Tests used:
HO-2 (rat brain) = target: T1, HO-2 (rat brain) (Rattus norvegicus, UniProt P23711); experiment: HO enzymatic activity, rat brain microsomal fraction (CO formation from methemalbumin); format: biochemical
T1 construct: brain microsomes were used as a source of HO-2; from tissue; host or cells: brain microsomal fraction of adult male Sprague-Dawley rats
T1 sequence (P23711 1-315): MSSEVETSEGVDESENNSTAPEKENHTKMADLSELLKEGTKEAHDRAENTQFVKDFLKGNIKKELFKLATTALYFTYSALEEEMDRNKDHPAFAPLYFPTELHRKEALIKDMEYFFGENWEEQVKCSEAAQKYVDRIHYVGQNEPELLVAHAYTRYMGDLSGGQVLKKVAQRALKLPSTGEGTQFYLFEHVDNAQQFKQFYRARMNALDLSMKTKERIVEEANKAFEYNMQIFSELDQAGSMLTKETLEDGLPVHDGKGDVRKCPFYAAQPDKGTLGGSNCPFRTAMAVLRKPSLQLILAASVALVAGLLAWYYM
Procedure: (§1) Incubations for HO activity analysis were done under conditions for which the rate of CO formation (pmol CO×min^−1×mg protein^−1) was linear with respect to time and microsomal protein concentration. Briefly, reaction mixtures (150 μL) consisting of 100 mM phosphate buffer (pH 7.4), 50 μM methemalbumin, and 1 mg/mL protein were pre-incubated with the inhibitors at final concentrations ranging from 0.1-100 μM for 10 minutes at 37° C. Reactions were initiated by adding NADPH at a final concentration of 1 mM and incubations were performed for an additional 15 minutes at 37° C.
(§2) Incubations for HO activity analysis were done under conditions for which the rate of CO formation (pmol CO/mg protein/minute) was linear with respect to time and microsomal protein concentration. Briefly, reaction mixtures (150 μL) consisting of 100 mM phosphate buffer (pH 7.4), 50 μM methemalbumin and 1 mg/mL protein were pre-incubated with the vehicle (ethanol or water in which the inhibitors were dissolved), or inhibitors at final concentrations ranging from 0.1-1000 μM for 10 minutes at 37° C. Reactions were initiated by adding β-NADPH at a final concentration of 1 mM and incubations were carried out for an additional 15 minutes at 37° C. Reactions were stopped by instantly freezing the reaction mixture on pulverized dry ice and CO formation was measured by gas chromatography using a TA 3000R Process Gas Analyzer (Trace Analytical/Ametek, Newark, Del., USA).
(§3) The values on the abscissa represent the decimal logarithm of the inhibitor's concentration (in μM), whereas the values of the activity on the ordinate are expressed as a percentage of the control experiments without inhibitor.
(§4) The IC50 values for the replicate experiments were employed to generate the reported standard deviation value.

HO-1 (rat spleen) = target: T2, HO-1 (rat spleen) (Rattus norvegicus, UniProt P06762); experiment: HO enzymatic activity, rat spleen microsomal fraction (CO formation from methemalbumin); format: biochemical
T2 construct: Spleen microsomes were used as a source of HO-1; from tissue; host or cells: spleen microsomal fraction of adult male Sprague-Dawley rats
T2 sequence (P06762 1-289): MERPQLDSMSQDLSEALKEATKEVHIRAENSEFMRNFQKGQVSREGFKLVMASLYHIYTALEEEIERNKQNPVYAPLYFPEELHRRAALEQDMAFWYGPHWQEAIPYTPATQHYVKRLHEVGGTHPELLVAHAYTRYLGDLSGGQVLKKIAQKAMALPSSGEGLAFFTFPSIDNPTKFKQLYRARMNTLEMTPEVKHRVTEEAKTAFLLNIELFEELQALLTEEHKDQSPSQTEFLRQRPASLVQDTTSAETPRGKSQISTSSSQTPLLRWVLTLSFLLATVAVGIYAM
Procedure: as §1, §2, §3, §4

[1] = IC50 HO-2 (rat brain)/μM), CO formation from methemalbumin, mean ± SD of replicate experiments
[2] = IC50 HO-1 (rat spleen/μM), CO formation from methemalbumin, mean ± SD of replicate experiments
[3] = CO formation from methemalbumin, mean ± SD of replicate experiments, read-out: IC50 HO-2 (rat brain)/μM)
[4] = CO formation from methemalbumin, mean ± SD of replicate experiments, read-out: IC50 HO-1 (rat spleen/μM)
[5] = IC50 HO-2 (rat brain)/μM), average ± SD of replicate experiments

IC50 (HO-2 (rat brain); [3]) | IC50 (HO-1 (rat spleen); [4]) | Structure (SMILES) | IC50 (HO-2 (rat brain); [1]) | IC50 (HO-1 (rat spleen); [2]) | other results
– | – | Nc1ccccc1SC[C@@H]1CO[C@](CCc2ccc(Cl)cc2)(Cn2ccnc2)O1 [QC-3, (2S,4S)-2-[2-(4-chlorophenyl)ethyl]-2-[(1H-imidazol-1-yl)methyl]-4-[{(2-aminophenyl)thio}methyl]-1,3-dioxolane dihydrochloride] | 55 ± 26 µM | – | –
– | – | Cc1ccc(S(=O)(=O)OC[C@@H]2CO[C@](CCc3ccc(Cl)cc3)(Cn3ccnc3)O2)cc1 [QC-4, (2S,4S)-2-[2-(4-chlorophenyl)ethyl]-2-[(1H-imidazol-1-yl)methyl]-4-[(p-toluenesulfonyloxy)methyl]-1,3-dioxolane dihydrochloride] | 48 ± 6 µM | 19 ± 9 µM | –
– | – | Cc1ccc(S(=O)(=O)OC[C@@H]2CO[C@](CCc3ccc(Cl)cc3)(Cn3ccnc3)O2)cc1 [QC-6, (2S,4S)-2-[2-(4-chlorophenyl)ethyl]-2-[(1H-imidazol-1-yl)methyl]-4-[(p-toluenesulfonyloxy)methyl]-1,3-dioxolane] | 23 ± 6 µM | 21 ± 2 µM | –
– | – | Nc1cccc(SC[C@@H]2CO[C@](CCc3ccc(Cl)cc3)(Cn3ccnc3)O2)c1 [QC-7, (2S,4S)-2-[2-(4-chlorophenyl)ethyl]-2-[(1H-imidazol-1-yl)methyl]-4-[{(3-aminophenyl)thio}methyl]-1,3-dioxolane dihydrochloride] | 21 ± 1 µM | 1.5 ± 0.1 µM | –
29 ± 6 µM | 28 ± 15 µM | COc1ccc(OC[C@H]2CO[C@](CCc3ccc(Cl)cc3)(Cn3ccnc3)O2)cc1 [QC-8, (2S,4S)-2-[2-(4-chlorophenyl)ethyl]-2-[(1H-imidazol-1-yl)methyl]-4-[(4-methoxyphenyloxy)methyl]-1,3-dioxolane hydrochloride] | – | – | –
– | – | Nc1cccc(SC[C@H]2CO[C@](CCc3ccc(Cl)cc3)(Cn3ccnc3)O2)c1 [QC-20, (2S,4R)-2-[2-(4-chlorophenyl)ethyl]-2-[(1H-imidazol-1-yl)methyl]-4-[{(3-aminophenyl)thio}methyl]-1,3-dioxolane hydrochloride] | – | 5.2 ± 0.4 µM | –
– | – | Cc1ccc(S(=O)(=O)OC[C@H]2CO[C@@](CCc3ccc(Cl)cc3)(Cn3ccnc3)O2)cc1 [QC-21, (2R,4R)-2-[2-(4-chlorophenyl)ethyl]-2-[(1H-imidazol-1-yl)methyl]-4-[(p-toluenesulfonyloxy)methyl]-1,3-dioxolane] | 23 ± 10 µM | 0.8 ± 0.3 µM | –
– | – | Nc1ccccc1SC[C@H]1CO[C@@](CCc2ccc(Cl)cc2)(Cn2ccnc2)O1 [QC-22, (2R,4R)-2-[2-(4-chlorophenyl)ethyl]-2-[(1H-imidazol-1-yl)methyl]-4-[{(2-aminophenyl)thio}methyl]-1,3-dioxolane dihydrochloride] | – | 87 ± 24 µM | –
> 100 µM | > 100 µM | COc1cccc(-c2nnn[nH]2)c1 [QC-28, 5-(3-methoxyphenyl)-1H-tetrazole] | – | – | –
> 100 µM | > 100 µM | Nc1cc(Cl)ccc1-c1nnn[nH]1 [QC-29, 5-(2-amino-4-chlorophenyl)-1H-tetrazole] | – | – | –
– | – | CCC(O)Cn1ccnc1 (stereo not drawn) [QC-31, 1-(1H-imidazol-1-yl)butan-2-ol hydrochloride] | > 100 µM | 131 ± 38 µM | –
– | – | COc1ccc(CCC(O)Cn2ccnc2)cc1 (stereo not drawn) [QC-33, 4-(4-methoxyphenyl)-1-(1H-imidazol-1-yl)butan-2-ol hydrochloride] | 6 ± 4 µM | 0.7 ± 0.1 µM | –
– | – | c1c[nH]cn1 [QC-43, Imidazole, reference compound] | > 100 µM | > 100 µM | –
> 100 µM | > 100 µM | Cc1ncc[nH]1 [QC-45, 2-methylimidazole, reference compound] | – | – | –
7.1 ± 0.7 µM | 1.8 ± 0.5 µM | Oc1ccc(OC[C@H]2CO[C@@](CCc3ccc(Cl)cc3)(Cn3ccnc3)O2)cc1 [QC-46, (2R,4S)-4-{2-[2-(4-Chlorophenyl)ethyl]-2-imidazol-1-ylmethyl-[1,3]dioxolan-4-ylmethoxy}phenol hydrochloride] | – | – | –
– | – | O=C(CCc1ccc(Br)cc1)Cn1ccnc1 [QC-53, 4-(4-Bromophenyl)-1-(1H-imidazol-1-yl)-2-butanone hydrochloride] | 10 ± 5 µM | – | –

IC50 (HO-2 (rat brain); [3]) | IC50 (HO-1 (rat spleen); [4]) | Structure (SMILES) | IC50 (HO-2 (rat brain); [1]) | IC50 (HO-1 (rat spleen); [2]) | other results
– | – | O=C(CCc1ccc(F)cc1)Cn1ccnc1 [QC-54, 4-(4-Fluorophenyl)-1-(1H-imidazol-1-yl)-2-butanone hydrochloride] | 2 ± 0.2 µM | – | –
– | – | Fc1ccc(CCC2(Cn3ccnc3)OCCO2)cc1 [QC-55, 1-((2-(2-(4-Fluorophenyl)ethyl)-1,3-dioxolan-2-yl)methyl)-1H-imidazole hydrochloride] | – | 4 ± 1 µM | –
125 ± 22 µM | 42 ± 5 µM | O=C(CBr)CCc1ccc(Br)cc1 [QC-59, 1-bromo-4-(4-bromophenyl)butan-2-one] | – | – | –
– | – | Cc1nccn1CC(=O)CCc1ccc(Br)cc1 [QC-61, 4-(4-bromophenyl)-1-[(2-methyl)-1H-imidazol-1-yl]butan-2-one hydrochloride] | > 100 µM | > 100 µM | –
– | – | O=C(CCc1ccc(Br)cc1)Cn1cnc2ccccc21 [QC-62, 4-(4-bromophenyl)-1-(1H-benzimidazol-1-yl)butan-2-one hydrochloride] | > 100 µM | > 100 µM | –
– | – | O=C(CCc1ccc(Br)cc1)Cn1cncn1 [QC-64, 4-(4-bromophenyl)-1-[1,2,4]triazol-1-yl-butan-2-one hydrochloride] | 3 ± 2 µM | – | –
34 ± 3 µM | – | O=C(CCc1ccccc1)Cn1cncn1 [QC-86, 4-phenyl-1-[1,2,4]triazol-1-yl-butan-2-one hydrochloride] | – | – | –
– | – | O=C(CCc1ccccc1)Cn1cccn1 [QC-87, 4-phenyl-1-pyrazol-1-yl-butan-2-one hydrochloride] | – | > 100 µM | –
> 100 µM | – | OC(Cn1cncn1)(Cn1cncn1)c1ccc(F)cc1F [QC-90, Fluconazole, reference compound] | – | – | –
– | 89 ± 1 µM | O=C(CCc1ccccc1)Cn1ccnn1 [QC-91, 4-phenyl-1-(1H-[1,2,3]triazol-1-yl)butan-2-one] | – | – | –
– | > 100 µM | O=C(CCc1ccccc1)Cn1nccn1 [QC-101, 4-phenyl-1-[1,2,3]triazol-2-yl-butan-2-one] | – | – | –
– | 14 ± 3 µM | c1ccc(CCC2(Cn3cncn3)OCCO2)cc1 [QC-104, 2-(2-phenethyl)-2-{(1H-[1,2,4]triazol-1-yl)methyl}-1,3-dioxolane hydrochloride] | – | – | –
43 ± 3 µM | – | Cl.Clc1ccc(CC[C@@]2(Cn3ccnc3)OC[C@@H](COc3ccc(-c4ccccc4)cc3)O2)cc1 [QC-129, (2R,4S)-1-{4-Biphenyl-4-yloxymethyl)-2-[2-(4-chlorophenyl)ethyl]-[1,3]dioxolan-2-ylmethyl}-1H-imidazole hydrochloride] | – | – | –
– | – | CC(C)(C(=O)c1ccccc1)n1ccnc1 [QC-187, 2-Imidazol-1-yl-2-methyl-1-phenyl-propan-1-one] | – | – | IC50 (HO-1 (rat spleen); IC50 HO-1 (rat spleen/μM), average ± SD of replicate experiments): > 100 µM
– | – | O=C(Cn1ccnc1)c1ccc(Cl)c(Cl)c1 [QC-189, 1-(3,4-Dichlorophenyl)-2-imidazol-1-yl-ethanone] | – | – | IC50 (HO-2 (rat brain); [5]): 4.7 ± 0.7 µM
– | – | O=C(/C=C/c1ccccc1)CCn1ccnc1 [QC-223, 5-(1H-Imidazol-1-yl)-1-phenyl-pent-1-en-3-one hydrochloride] | – | – | IC50 (HO-2 (rat brain); [5]): 31 ± 12 µM

Structure (SMILES) | IC50 (HO-2 (rat brain); [3]) | IC50 (HO-1 (rat spleen); [4]) | IC50 (HO-2 (rat brain); [1]) | IC50 (HO-1 (rat spleen); [2]) | other results
O=C(CCc1ccc(Cl)cc1)Cn1ccnc1 [QC-9, 4-(4-chlorophenyl)-1-(1H-imidazol-1-yl)-2-butanone hydrochloride] | 43 ± 5 µM | – | – | – | –
CCC(COC(C)=O)n1ccnc1 (stereo not drawn) [QC-36, 1-acetoxy-2-(1H-imidazol-1-yl)-butane] | > 100 µM | > 100 µM | – | – | –
Fc1ccc(COC(CCc2ccc(Cl)cc2)Cn2ccnc2)cc1 (stereo not drawn) [QC-37, 4-(4-Chlorophenyl)-2-(4-fluorobenzyloxy)-1-(1H-imidazol-1-yl)butane hydrochloride] | 1 ± 0.01 µM | 0.9 ± 0.3 µM | – | – | –
O=C(Cn1ccnc1)NCc1ccccc1 [QC-63, N-benzyl-2-(1H-imidazol-1-yl)-acetamide hydrochloride] | – | 12 ± 5 µM | > 100 µM | – | –

Reference: patent US20120020915A1, “Compounds and Methods for Treating Cancer and Diseases of the Central Nervous System” (QUEENS UNIVERSITY AT KINGSTON, priority 2007, published 2012)
